Reference: publication PMC5788402, “Impact of Target Warhead and Linkage Vector on Inducing Protein Degradation: Comparison of Bromodomain and Extra-Terminal (BET) Degraders Derived from Triazolodiazepine (JQ1) and Tetrahydroquinoline (I-BET726) BET Inhibitor Scaffolds” (Journal of Medicinal Chemistry, 2017)
Like-named read-outs stand apart in the source and are kept apart here.

Assays:
Brd4 [1] = biological target: T1, Brd4 (Homo sapiens, UniProt O60885); test: Brd4 depletion in HL60 (immunoblot); assay type: cell-based
T1 construct: endogenous in cells; host or cells: MV4;11; HL60

Brd4 tandem bromodomain = conditions: cited from earlier work
cMyc = cMyc depletion in MV4;11 (immunoblot); assay type: cell-based; conditions: 50 nM, 4 h
Brd4^BD2 = Brd4^BD2 (Homo sapiens, UniProt O60885); test: ITC binary titration, Brd4^BD2 into PROTAC; assay type: binding; conditions: Brd4^BD2 in syringe, PROTAC in cell
Brd4 [2] = biological target: T1, Brd4; test: Brd4 depletion in MV4;11 (immunoblot); assay type: cell-based; conditions: 50 nM, 4 h
[3] = biological target: VHL-EloC-EloB protein (VCB) (Homo sapiens, UniProt P40337); test: ITC binary titration, VCB into PROTAC; assay type: binding; conditions: VCB in syringe, PROTAC in cell
[4] = biological target: VCB / Brd4^BD2 ternary complex (Homo sapiens, UniProt O60885+P40337); test: ITC ternary titration, VCB into Brd4^BD2–PROTAC complex; assay type: binding; conditions: for α: cooperativity, ratio between binary and ternary Kd; for α / ΔpKd ± uncertainty: Brd4^BD2; for cooperativity (α) Brd4–BD2: ternary complex formation with VCB and Brd4^BD2, as tabulated in Table 2; for ΔpKd ± uncertainty: ternary vs binary; for stoichiometry N / ΔG / ΔH / –TΔS: ternary, VCB in syringe, Brd4^BD2–PROTAC in cell
MV4;11 cells = test: Cell viability assay (CellTiter-Glo), MV4;11; assay type: cell-based; conditions: Homo sapiens, antiproliferative, 48 h treatment, error = quality of curve fitting, read-out: pEC50 MV4;11 (converted)

SMILES | Brd4 depletion (%) HL60 (Brd4 [1]; 50 nM, 4 h, HL60) | stoichiometry N (Brd4^BD2) | ΔG (Brd4^BD2) | ΔH (Brd4^BD2) | –TΔS (Brd4^BD2) | stoichiometry N [3] | ΔG [3] | ΔH [3] | –TΔS [3] | α [4] | cooperativity (α) Brd4–BD2 [4] | ΔpKd ± uncertainty [4] | stoichiometry N [4] | ΔG [4] | ΔH [4] | –TΔS [4] | further results
CC(=O)N1c2ccc(-c3ccc(C(=O)O)cc3)cc2[C@H](Nc2ccc(Cl)cc2)C[C@@H]1C [compound 4] | –157% |  |  |  |  |  |  |  |  |  |  |  |  |  |  |  | Kd (Brd4 tandem bromodomain): 0.004 µM
Cc1sc2c(c1C)C(c1ccc(Cl)cc1)=N[C@@H](CC(=O)OC(C)(C)C)c1nnc(C)n1-2 [compound 3] |  |  |  |  |  |  |  |  |  |  |  |  |  |  |  |  | Brd4 depletion (%) HL60 (Brd4 [1]): –243/20%
CC(=O)N1c2ccc(-c3ccc(C(=O)NCCOCCOCC(=O)N[C@H](C(=O)N4C[C@H](O)C[C@H]4C(=O)NCc4ccc(-c5scnc5C)cc4)C(C)(C)C)cc3)cc2[C@H](Nc2ccc(Cl)cc2)C[C@@H]1C [compound 8, (2S,4R)-1-((S)-1-(4-((2S,4R)-1-Acetyl-4-((4-chlorophenyl)amino)-2-methyl-1,2,3,4-tetrahydroquinolin-6-yl)phenyl)-12-(tert-butyl)-1,10-dioxo-5,8-dioxa-2,11-diazatridecan-13-oyl)-4-hydroxy-N-(4-(4-methylthiazol-5-yl)benzyl)pyrrolidine-2-carboxamide] | –156% | 0.804 ± 0.003 | –11.7 ± 0.4 kcal·mol^–1 | –10.0 ± 0.1 kcal·mol^–1 | –1.71 ± 0.43 kcal·mol^–1 | 1.12 ± 0.01 | –9.46 ± 0.13 kcal·mol^–1 | –4.07 ± 0.07 kcal·mol^–1 | –5.39 ± 0.14 kcal·mol^–1 | 0.2 | 0.15 | –0.83 ± 0.10 | 1.07 ± 0.01 | –8.33 ± 0.05 kcal·mol^–1 | –7.02 ± 0.11 kcal·mol^–1 | –1.31 ± 0.12 kcal·mol^–1 | cMyc depletion (%) MV4;11 (cMyc): 11/11%; Brd4 depletion (%) MV4;11 (Brd4 [2]): 11/11%
Cc1ncsc1-c1ccc(CNC(=O)[C@@H]2C[C@@H](O)CN2C(=O)[C@@H](NC(=O)COCCOCCOCCOCCNC(=O)C[C@@H]2N=C(c3ccc(Cl)cc3)c3c(sc(C)c3C)-n3c(C)nnc32)C(C)(C)C)cc1 [compound 7] |  | 0.79 ± 0.03 | –10.3 ± 0.04 kcal·mol^–1 | –10.6 ± 0.5 kcal·mol^–1 | 0.31 ± 0.53 kcal·mol^–1 | 0.76 ± 0.03 | –9.75 ± 0.13 kcal·mol^–1 | –8.79 ± 0.42 kcal·mol^–1 | –0.96 ± 0.29 kcal·mol^–1 | 4.7 | 4.7 | 0.66 ± 0.10 | 0.76 ± 0.07 | –10.7 ± 0.05 kcal·mol^–1 | –10.6 ± 1.3 kcal·mol^–1 | –0.07 ± 1.3 kcal·mol^–1 | EC50 (MV4;11 cells): 0.123 µM
